Source: US20120101136A1, “5-MEMBERED HETEROARYL DERIVATIVES USED AS SPHINGOSINE 1- PHOSPHATE RECEPTOR AGONISTS” (GLAXO GROUP LIMITED, priority 2009, published 2012)

Target: T1, S1P1 receptor (human Endothelial Differentiation Gene 1 (EDG1)) (Homo sapiens, UniProt P21453)
T1 construct: TEV protease site; Gal4-VP16 transcription factor; expressed in transfected cells; host or cells: Tango GPCR-bla U2OS parental cell line (EDG1-bla/U2OS)
Assay: S1P1 Tango Assay - 384 Well Format (EDG1-bla/U2OS cells)
Assay type: cell-based
Conditions: agonist, beta-lactamase reporter
Experimental: Recombinant EDG1-bla/U2OS cells (contain the human Endothelial Differentiation Gene 1 (EDG1) linked to a TEV protease site and a Gal4-VP16 transcription factor stably integrated into the Tango GPCR-bla U2OS parental cell line) were harvested from growth medium and passaged into assay medium (Invitrogen Freestyle Expression Medium). The cells were starved for 24 hours at 37° C., 5% CO2, harvested and resuspended in assay medium at a density of ˜200,000 cells/ml.
All test compounds were dissolved in DMSO at a concentration of 10 mM and were prepared in 100% DMSO to provide 10 point dose response curves. Test compounds prepared by Bravo (Velocity 11) were added to wells in columns 2-11 and 13-22; DMSO was added to wells in columns 12 and 23 as unstimulated controls and assay medium was added to wells in columns 1 and 24 as cell-free controls. An S1P1 agonist was added to wells in row 2, columns 2-11 as stimulated controls and test compounds were added to wells in row 2, columns 13-22 and rows 3-15, columns 2-11/13-22 (row 1 and 16 were empty and not used). Compounds in solution were added to the assay plate (Greiner 781090) using an Echo (Labcyte) dose-response program (50 nl/well). The unstimulated and cell-free controls were loaded with 50 nl/well pure DMSO to ensure that the DMSO concentration was constant across the plate for all assays.
50 μl of the cell suspension was added to each well in columns 2-23 of the plate (˜10,000 cells per well). 50 μl of assay medium was added to each well in the cell-free controls (columns 1 and 24). The cells were incubated overnight at 37° C./5% CO2.
10 μl of 6× substrate mixture (LiveBLAzer™-FRET B/G substrate (CCF4-AM) Cat # K1096 from Invitrogen, Inc.) was added to each well using Bravo and the plates incubated at room temperature for 2 h in the dark. The plate was finally read on EnVision using one excitation channel (409 nm) and two emission channels (460 nm and 530 nm).
The blue/green emission ratio (460 nm/530 nm) was calculated for each well, by dividing the background-subtracted Blue emission values by the background-subtracted Green emission values. The dose response curve is based on sigmoidal dose-response model. All ratio data was normalized based upon the maximum emission ratio of positive control and minimum emission ratio of negative control (DMSO) on each plate. The intrinsic activity (IA) of each compound would be the normalized percentage of its maximum response after curve fitting.

T1 sequence (P21453 whole entry, the tested form may be a part): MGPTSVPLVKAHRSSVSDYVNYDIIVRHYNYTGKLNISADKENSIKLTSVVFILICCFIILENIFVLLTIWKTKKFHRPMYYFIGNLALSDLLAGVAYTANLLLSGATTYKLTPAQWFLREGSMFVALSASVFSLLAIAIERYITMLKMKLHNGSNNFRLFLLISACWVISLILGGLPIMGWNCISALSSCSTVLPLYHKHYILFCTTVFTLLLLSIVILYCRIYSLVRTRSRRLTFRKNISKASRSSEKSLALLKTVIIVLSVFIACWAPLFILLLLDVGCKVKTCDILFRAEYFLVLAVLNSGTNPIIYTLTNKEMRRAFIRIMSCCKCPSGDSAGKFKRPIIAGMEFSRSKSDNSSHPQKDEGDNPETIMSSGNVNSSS

SMILES | EC50 [nM]
CC(C)Oc1ccc(-c2nc(-c3ccc(OCCCCC(=O)O)cc3)no2)cc1C#N [Example 8, 5-{[4-(5-{3-Cyano-4-[(1-methylethyl)oxy]phenyl}-1,2,4-oxadiazol-3-yl)phenyl]oxy}pentanoic acid] | ≤ 1
CCc1cc(OCC(=O)O)ccc1-c1noc(-c2ccc(OC(C)C)c(C#N)c2)n1 [Example 27, {[4-(5-{3-cyano-4-[(1-methylethyl)oxy]phenyl}-1,2,4-oxadiazol-3-yl)-3-ethylphenyl]oxy}acetic acid] | ≤ 1
Cc1cc(OCCCC(=O)O)ccc1-c1noc(-c2ccc(OC(C)C)c(Cl)c2)n1 [Example 1, 4-{[4-(5-{3-Chloro-4-[(1-methylethyl)oxy]phenyl}-1,2,4-oxadiazol-3-yl)-3-methylphenyl]oxy}butanoic acid] | ≤ 0.1
CCc1cc(OCCCC(=O)O)ccc1-c1cnc(-c2ccc(OC(C)C)c(C#N)c2)s1 [Example 43, 4-{[4-(2-{3-cyano-4-[(1-methylethyl)oxy]phenyl}-1,3-thiazol-5-yl)-3-ethylphenyl]oxy}butanoic acid] | ≤ 1
COc1cc(OCCCCC(=O)O)ccc1-c1noc(-c2ccc(OC(C)C)c(C#N)c2)n1 [Example 12, 5-{[4-(5-{3-Cyano-4-[(1-methylethyl)oxy]phenyl}-1,2,4-oxadiazol-3-yl)-3-(methyloxy)phenyl]oxy}pentanoic acid] | ≤ 1
CNCCCCOc1ccc(-c2noc(-c3ccc(OC(C)C)c(C#N)c3)n2)c(Cl)c1 [Example 21, 5-[3-(2-chloro-4-{[4-(methylamino)butyl]oxy}phenyl)-1,2,4-oxadiazol-5-yl]-2-[(1-methylethyl)oxy]benzonitrile] | ≤ 1
CC(C)Oc1ccc(-c2nc(-c3ccc(OCC(=O)O)cc3)no2)cc1C#N [Example 25, {[4-(5-{3-cyano-4-[(1-methylethyl)oxy]phenyl}-1,2,4-oxadiazol-3-yl)phenyl]oxy}acetic acid] | ≤ 100
CCc1cc(OCCNC)ccc1-c1noc(-c2ccc(OC(C)C)c(Cl)c2)n1 [Example 26, (2-{[4-(5-{3-chloro-4-[(1-methylethyl)oxy]phenyl}-1,2,4-oxadiazol-3-yl)-3-ethylphenyl]oxy}ethyl)methylamine] | ≤ 10
CNCCCOc1ccc(-c2noc(-c3ccc(OC(C)C)c(Cl)c3)n2)c(C)c1 [Example 40, (3-{[4-(5-{3-chloro-4-[(1-methylethyl)oxy]phenyl}-1,2,4-oxadiazol-3-yl)-3-methylphenyl]oxy}propyl)methylamine] | ≤ 10
CC(C)Oc1ccc(-c2nc(-c3ccc(OCCCC(=O)O)cc3F)no2)cc1C#N [Example 22, 4-{[4-(5-{3-cyano-4-[(1-methylethyl)oxy]phenyl}-1,2,4-oxadiazol-3-yl)-3-fluorophenyl]oxy}butanoic acid] | ≤ 0.1
Cc1cc(OCC(=O)O)ccc1-c1noc(-c2ccc(OC(C)C)c(Cl)c2)n1 [Example 3, {[4-(5-{3-Chloro-4-[(1-methylethyl)oxy]phenyl}-1,2,4-oxadiazol-3-yl)-3-methylphenyl]oxy}acetic acid] | ≤ 1
CNCCOc1ccc(-c2noc(-c3ccc(OC(C)C)c(C#N)c3)n2)c(Cl)c1 [Example 36, 5-[3-(2-chloro-4-{[2-(methylamino)ethyl]oxy}phenyl)-1,2,4-oxadiazol-5-yl]-2-[(1-methylethyl)oxy]benzonitrile] | ≤ 1
CCc1cc(OCCNC)ccc1-c1noc(-c2ccc(OC(C)C)c(C#N)c2)n1 [Example 33, 5-[3-(2-ethyl-4-{[2-(methylamino)ethyl]oxy}phenyl)-1,2,4-oxadiazol-5-yl]-2-[(1-methylethyl)oxy]benzonitrile] | ≤ 10

Further lines, results first:

EC50 [nM] | SMILES
≤ 10 | CCNCCCCOc1ccc(-c2noc(-c3ccc(OC(C)C)c(C#N)c3)n2)c(Cl)c1 [Example 20, 5-[3-(2-chloro-4-{[4-(ethylamino)butyl]oxy}phenyl)-1,2,4-oxadiazol-5-yl]-2-[(1-methylethyl)oxy]benzonitrile]
≤ 1 | CCc1cc(OCCCC(=O)O)ccc1-c1nc(-c2ccc(OC(C)C)c(C#N)c2)ns1 [Example 41, 4-{[4-(3-{3-cyano-4-[(1-methylethyl)oxy]phenyl}-1,2,4-thiadiazol-5-yl)-3-ethylphenyl]oxy}butanoic acid]
≤ 10 | CC(C)Oc1ccc(-c2nc(-c3ccc(OCC(=O)O)cc3Cl)no2)cc1C#N [Example 9, {[3-Chloro-4-(5-{3-cyano-4-[(1-methylethyl)oxy]phenyl}-1,2,4-oxadiazol-3-yl)phenyl]oxy}acetic acid]
≤ 0.1 | CC(C)Oc1ccc(-c2nc(-c3ccc(OCCCCC(=O)O)cc3Cl)no2)cc1C#N [Example 7, 5-{[3-Chloro-4-(5-{3-cyano-4-[(1-methylethyl)oxy]phenyl}-1,2,4-oxadiazol-3-yl)phenyl]oxy}pentanoic acid]
≤ 0.1 | CCc1cc(OCCCCC(=O)O)ccc1-c1noc(-c2ccc(OC(C)C)c(C#N)c2)n1 [Example 31, 5-{[4-(5-{3-cyano-4-[(1-methylethyl)oxy]phenyl}-1,2,4-oxadiazol-3-yl)-3-ethylphenyl]oxy}pentanoic acid]
≤ 10 | CCc1cc(OCCCCNC)ccc1-c1noc(-c2ccc(OC(C)C)c(C#N)c2)n1 [Example 38, 5-[3-(2-ethyl-4-{[4-(methylamino)butyl]oxy}phenyl)-1,2,4-oxadiazol-5-yl]-2-[(1-methylethyl)oxy]benzonitrile]
≤ 1 | CCc1cc(OCCCNC)ccc1-c1noc(-c2ccc(OC(C)C)c(C#N)c2)n1 [Example 39, 5-[3-(2-ethyl-4-{[3-(methylamino)propyl]oxy}phenyl)-1,2,4-oxadiazol-5-yl]-2-[(1-methylethyl)oxy]benzonitrile]
≤ 0.1 | CCc1cc(OCCCC(=O)O)ccc1-c1noc(-c2ccc(OC(C)C)c(Cl)c2)n1 [Example 30, 4-{[4-(5-{3-chloro-4-[(1-methylethyl)oxy]phenyl}-1,2,4-oxadiazol-3-yl)-3-ethylphenyl]oxy}butanoic acid]
≤ 0.1 | CCc1cc(OCCCC(=O)O)ccc1-c1noc(-c2ccc(OC(C)C)c(C#N)c2)n1 [Example 32, 4-{[4-(5-{3-cyano-4-[(1-methylethyl)oxy]phenyl}-1,2,4-oxadiazol-3-yl)-3-ethylphenyl]oxy}butanoic acid]
≤ 1 | CCc1cc(OCCCC(=O)O)ccc1-c1nnc(-c2ccc(OC(C)C)c(C#N)c2)o1 [Example 15, 4-{[4-(5-{3-cyano-4-[(1-methylethyl)oxy]phenyl}-1,3,4-oxadiazol-2-yl)-3-ethylphenyl]oxy}butanoic acid]
≤ 1000 | CCc1cc(OCCCNC)ccc1-c1nnc(-c2ccc(OC(C)C)c(C#N)c2)s1 [Example 13, 5-[5-(2-ethyl-4-{[3-(methylamino)propyl]oxy}phenyl)-1,3,4-thiadiazol-2-yl]-2-[(1-methylethyl)oxy]benzonitrile]
≤ 0.1 | CC(C)Oc1ccc(-c2nc(-c3ccc(OCCCC(=O)O)cc3Cl)no2)cc1C#N [Example 10, 4-{[3-Chloro-4-(5-{3-cyano-4-[(1-methylethyl)oxy]phenyl}-1,2,4-oxadiazol-3-yl)phenyl]oxy}butanoic acid]
≤ 100 | CC(C)Oc1ccc(-c2nc(-c3ccc(OCC(=O)O)cc3F)no2)cc1C#N [Example 23, {[4-(5-{3-cyano-4-[(1-methylethyl)oxy]phenyl}-1,2,4-oxadiazol-3-yl)-3-fluorophenyl]oxy}acetic acid]
≤ 10 | CCc1cc(OCCCNC)ccc1-c1noc(-c2ccc(OC(C)C)c(Cl)c2)n1 [Example 35, (3-{[4-(5-{3-chloro-4-[(1-methylethyl)oxy]phenyl}-1,2,4-oxadiazol-3-yl)-3-ethylphenyl]oxy}propyl)methylamine]
≤ 10 | CCc1cc(OCCCC(=O)O)ccc1-c1nsc(-c2ccc(OC(C)C)c(C#N)c2)n1 [Example 42, 4-{[4-(5-{3-cyano-4-[(1-methylethyl)oxy]phenyl}-1,2,4-thiadiazol-3-yl)-3-ethylphenyl]oxy}butanoic acid]
≤ 1 | Cc1cc(OCCCCC(=O)O)ccc1-c1noc(-c2ccc(OC(C)C)c(Cl)c2)n1 [Example 2, 5-{[4-(5-{3-Chloro-4-[(1-methylethyl)oxy]phenyl}-1,2,4-oxadiazol-3-yl)-3-methylphenyl]oxy}pentanoic acid]
≤ 10 | CNCCOc1ccc(-c2noc(-c3ccc(OC(C)C)c(Cl)c3)n2)c(C)c1 [Example 5, 2-{[4-(5-{3-Chloro-4-[(1-methylethyl)oxy]phenyl}-1,2,4-oxadiazol-3-yl)-3-methylphenyl]oxy}-N-methylethanamine]
